≈ marks a conversion by molar mass, not a printed value.
Assays:
Experiment in all cases: Bacterial growth minimal inhibitory concentration (microdilution, cation-adjusted Mueller-Hinton Broth)
Assay type in all cases: cell-based
[1] = tested on: Acinetobacter baumanii T6474; conditions: Acinetobacter baumannii, multiply-resistant strain (in particular quinolone-resistant)
Description: (§1) Minimal Inhibitory Concentrations (MICs; mg/L) were determined in cation-adjusted MuellerHinton Broth by a microdilution method following the description given in “Methods for Dilution Antimicrobial Susceptibility Tests for Bacteria that Grow Aerobically”, Approved standard, 7th ed., Clinical and Laboratory Standards Institute (CLSI) Document M7-A7, Wayne, Pa., USA, 2006.
(§2) All Example compounds were tested against several Gram positive and Gram negative bacteria. […] Staphylococcus aureus A798, Enterococcus faecium A949 and Acinetobacter baumanii T6474 are multiply-resistant strains (in particular quinolone-resistant), while Moraxella catarrhalis A894 is a quinolone-sensitive strain and Staphylococcus aureus ATCC29213 is a methicillin-sensitive and quinolone-sensitive strain.

[2] = tested on: Enterococcus faecium A949; conditions: multiply-resistant strain (in particular quinolone-resistant), read-out: MIC for E. faecium A949
Description: as §1, §2

[3] = tested on: Moraxella catarrhalis A894; conditions: quinolone-sensitive strain
Description: as §1, §2

[4] = tested on: Staphylococcus aureus A798; conditions: multiply-resistant strain (in particular quinolone-resistant), read-out: MIC for S. aureus A798
Description: as §1, §2

[5] = tested on: Staphylococcus aureus ATCC29213; conditions: methicillin-sensitive and quinolone-sensitive strain, read-out: MIC for S. aureus ATCC29213
Description: as §1, §2

MIC [1] [µg/mL]	MIC [2] [µg/mL]	MIC [3] [µg/mL]	MIC [4] [µg/mL]	MIC [5] [µg/mL]	SMILES
> 8	1 (≈ 2.23 µM)	2 (≈ 4.46 µM)	2 (≈ 4.46 µM)	0.25 (≈ 0.557 µM)	CCCc1ccc(-n2nc(CCCN[C@@H]3Cn4c(=O)ccc5ccc(F)c3c54)oc2=O)cc1 [Example 1, (S)-9-fluoro-1-{3-[5-oxo-4-(4-propyl-phenyl)-4,5-dihydro-[1,3,4]oxadiazol-2-yl]-propylamino}-1,2-dihydro-pyrrolo[3,2,1-ij]quinolin-4-one]
2 (≈ 4.17 µM)	2 (≈ 4.17 µM)	0.5 (≈ 1.04 µM)	0.5 (≈ 1.04 µM)	0.5 (≈ 1.04 µM)	O=C1COc2ccc(-n3nc(CCCN[C@H]4Cn5c(=O)cnc6ccc(F)c4c65)oc3=O)nc2N1 [Example 6, (R)-7-fluoro-6-{3-[5-oxo-4-(3-oxo-3,4-dihydro-2H-pyrido[3,2-b][1,4]oxazin-6-yl)-4,5-dihydro-[1,3,4]oxadiazol-2-yl]-propylamino}-5,6-dihydro-pyrrolo[1,2,3-de]quinoxalin-3-one]
1 (≈ 2.04 µM)	8 (≈ 16.3 µM)	1 (≈ 2.04 µM)	2 (≈ 4.08 µM)	1 (≈ 2.04 µM)	COc1ccc2ccc(=O)n3c2c1[C@H](NCCCc1nn(-c2ccc4c(n2)NC(=O)CO4)c(=O)o1)C3 [Example 39, (S)-9-methoxy-1-{3-[5-oxo-4-(3-oxo-3,4-dihydro-2H-pyrido[3,2-b][1,4]oxazin-6-yl)-4,5-dihydro-[1,3,4]oxadiazol-2-yl]-propylamino}-1,2-dihydro-pyrrolo[3,2,1-ij]quinolin-4-one]
> 8	> 8	4 (≈ 8.61 µM)	8 (≈ 17.2 µM)	4 (≈ 8.61 µM)	O=c1oc(CCCN[C@H]2Cn3c(=O)ccc4ccc(F)c2c43)nn1-c1ccc2c(c1)OCCO2 [Example 23, (R)-1-{3-[4-(2,3-dihydro-benzo[1,4]dioxin-6-yl)-5-oxo-4,5-dihydro-[1,3,4]oxadiazol-2-yl]-propylamino}-9-fluoro-1,2-dihydro-pyrrolo[3,2,1-ij]quinolin-4-one]
2 (≈ 4.33 µM)	4 (≈ 8.67 µM)	0.5 (≈ 1.08 µM)	1 (≈ 2.17 µM)	0.5 (≈ 1.08 µM)	O=C1COc2ccc(-n3nc(CCCN[C@@H]4Cn5c(=O)cnc6cccc4c65)oc3=O)nc2N1 [Example 35, (S)-6-{3-[5-oxo-4-(3-oxo-3,4-dihydro-2H-pyrido[3,2-b][1,4]oxazin-6-yl)-4,5-dihydro-[1,3,4]oxadiazol-2-yl]-propylamino}-5,6-dihydro-pyrrolo[1,2,3-de]quinoxalin-3-one]
2 (≈ 4.17 µM)	2 (≈ 4.17 µM)	0.25 (≈ 0.521 µM)	0.5 (≈ 1.04 µM)	0.25 (≈ 0.521 µM)	O=C1COc2ccc(-n3nc(CCCN[C@@H]4Cn5c(=O)cnc6ccc(F)c4c65)oc3=O)nc2N1 [Example 7, (S)-7-fluoro-6-{3-[5-oxo-4-(3-oxo-3,4-dihydro-2H-pyrido[3,2-b][1,4]oxazin-6-yl)-4,5-dihydro-[1,3,4]oxadiazol-2-yl]-propylamino}-5,6-dihydro-pyrrolo[1,2,3-de]quinoxalin-3-one]

Further lines, the compound ahead of its results:

SMILES	MIC [1] [µg/mL]	MIC [2] [µg/mL]	MIC [3] [µg/mL]	MIC [4] [µg/mL]	MIC [5] [µg/mL]
O=C1COc2ccc(-n3nc(CCCN[C@H]4Cn5c(=O)cnc6ccc(F)c4c65)oc3=O)cc2N1 [Example 13, (R)-7-fluoro-6-{3-[5-oxo-4-(3-oxo-3,4-dihydro-2H-benzo[1,4]oxazin-6-yl)-4,5-dihydro-[1,3,4]oxadiazol-2-yl]-propylamino}-5,6-dihydro-pyrrolo[1,2,3-de]quinoxalin-3-one]	0.25 (≈ 0.523 µM)	0.25 (≈ 0.523 µM)	≤ 0.016	0.031 (≈ 0.0648 µM)	0.031 (≈ 0.0648 µM)
O=C1CSc2ccc(-n3nc(CCCN[C@@H]4Cn5c(=O)ccc6ccc(F)c4c65)oc3=O)cc2N1 [Example 15, (S)-9-fluoro-1-{3-[5-oxo-4-(3-oxo-3,4-dihydro-2H-benzo[1,4]-thiazin-6-yl)-4,5-dihydro-[1,3,4]oxadiazol-2-yl]-propylamino}-1,2-dihydro-pyrrolo[3,2,1-ij]quinolin-4-one]	0.125 (≈ 0.253 µM)	0.063 (≈ 0.128 µM)	≤ 0.016	≤ 0.016	≤ 0.016
CCOc1ccc(-n2nc(CCCN[C@H]3Cn4c(=O)cnc5ccc(F)c3c54)oc2=O)cc1 [Example 31, (R)-6-{3-[4-(4-ethoxy-phenyl)-5-oxo-4,5-dihydro-[1,3,4]oxadiazol-2-yl]-propylamino}-7-fluoro-5,6-dihydro-pyrrolo[1,2,3-de]quinoxalin-3-one]	8 (≈ 17.7 µM)	> 8	8 (≈ 17.7 µM)	4 (≈ 8.86 µM)	1 (≈ 2.22 µM)
O=C1CSc2ccc(-n3nc(CCCN[C@H]4Cn5c(=O)ccc6ccc(F)c4c65)oc3=O)cc2N1 [Example 19, (R)-9-fluoro-1-{3-[5-oxo-4-(3-oxo-3,4-dihydro-2H-benzo[1,4]-thiazin-6-yl)-4,5-dihydro-[1,3,4]oxadiazol-2-yl]-propylamino}-1,2-dihydro-pyrrolo[3,2,1-ij]quinolin-4-one]	≤ 0.016	0.25 (≈ 0.507 µM)	0.031 (≈ 0.0628 µM)	≤ 0.016	≤ 0.016
O=C1CSc2ccc(-n3nc(CCCN[C@H]4Cn5c(=O)ccc6ccc(F)c4c65)oc3=O)nc2N1 [Example 14, (R)-9-fluoro-1-{3-[5-oxo-4-(3-oxo-3,4-dihydro-2H-pyrido[3,2-b][1,4]-thiazin-6-yl)-4,5-dihydro-[1,3,4]oxadiazol-2-yl]-propylamino}-1,2-dihydro-pyrrolo[3,2,1-ij]quinolin-4-one]	0.25 (≈ 0.506 µM)	0.25 (≈ 0.506 µM)	0.031 (≈ 0.0627 µM)	0.031 (≈ 0.0627 µM)	≤ 0.016
CCOc1ccc(-n2nc(CCCN[C@@H]3Cn4c(=O)ccc5ccc(F)c3c54)oc2=O)cc1 [Example 28, (S)-1-{3-[4-(4-ethoxy-phenyl)-5-oxo-4,5-dihydro-[1,3,4]oxadiazol-2-yl]-propylamino}-9-fluoro-1,2-dihydro-pyrrolo[3,2,1-ij]quinolin-4-one]	4 (≈ 8.88 µM)	> 8	8 (≈ 17.8 µM)	4 (≈ 8.88 µM)	2 (≈ 4.44 µM)
CCCc1ccc(-n2nc(CCCN[C@H]3Cn4c(=O)cnc5ccc(F)c3c54)oc2=O)cc1 [Example 2, (R)-7-fluoro-6-{3-[5-oxo-4-(4-propyl-phenyl)-4,5-dihydro-[1,3,4]oxadiazol-2-yl]-propylamino}-5,6-dihydro-pyrrolo[1,2,3-de]quinoxalin-3-one]	> 8	1 (≈ 2.22 µM)	2 (≈ 4.45 µM)	0.5 (≈ 1.11 µM)	0.125 (≈ 0.278 µM)
O=C1CSc2ccc(-n3nc(CCCN[C@@H]4Cn5c(=O)cnc6ccc(F)c4c65)oc3=O)cc2N1 [Example 20, (S)-7-fluoro-6-{3-[5-oxo-4-(3-oxo-3,4-dihydro-2H-benzo[1,4]-thiazin-6-yl)-4,5-dihydro-[1,3,4]oxadiazol-2-yl]-propylamino}-5,6-dihydro-pyrrolo[1,2,3-de]quinoxalin-3-one]	≤ 0.016	0.25 (≈ 0.506 µM)	0.063 (≈ 0.127 µM)	≤ 0.016	≤ 0.016
O=C1COc2ccc(-n3nc(CCCN[C@@H]4Cn5c(=O)cnc6ccc(F)c4c65)oc3=O)cc2N1 [Example 10, (S)-7-fluoro-6-{3-[5-oxo-4-(3-oxo-3,4-dihydro-2H-benzo[1,4]oxazin-6-yl)-4,5-dihydro-[1,3,4]oxadiazol-2-yl]-propylamino}-5,6-dihydro-pyrrolo[1,2,3-de]quinoxalin-3-one]	0.25 (≈ 0.523 µM)	0.5 (≈ 1.05 µM)	≤ 0.016	0.063 (≈ 0.132 µM)	0.031 (≈ 0.0648 µM)
O=C1CSc2ccc(-n3nc(CCCN[C@@H]4Cn5c(=O)ccc6ccc(F)c4c65)oc3=O)nc2N1 [Example 17, (S)-9-fluoro-1-{3-[5-oxo-4-(3-oxo-3,4-dihydro-2H-pyrido[3,2-b][1,4]-thiazin-6-yl)-4,5-dihydro-[1,3,4]oxadiazol-2-yl]-propylamino}-1,2-dihydro-pyrrolo[3,2,1-ij]quinolin-4-one]	0.25 (≈ 0.506 µM)	0.25 (≈ 0.506 µM)	0.031 (≈ 0.0627 µM)	0.063 (≈ 0.127 µM)	0.031 (≈ 0.0627 µM)
CCSc1ccc(-n2nc(CCCN[C@H]3Cn4c(=O)ccc5ccc(F)c3c54)oc2=O)cc1 [Example 32, (R)-1-{3-[4-(4-ethylsulfanyl-phenyl)-5-oxo-4,5-dihydro-[1,3,4]oxadiazol-2-yl]-propylamino}-9-fluoro-1,2-dihydro-pyrrolo[3,2,1-ij]quinolin-4-one]	0.5 (≈ 1.07 µM)	0.5 (≈ 1.07 µM)	0.5 (≈ 1.07 µM)	0.25 (≈ 0.536 µM)	0.063 (≈ 0.135 µM)
O=C1CSc2ccc(-n3nc(CCCN[C@H]4Cn5c(=O)cnc6ccc(F)c4c65)oc3=O)cc2N1 [Example 21, (R)-7-fluoro-6-{3-[5-oxo-4-(3-oxo-3,4-dihydro-2H-benzo[1,4]-thiazin-6-yl)-4,5-dihydro-[1,3,4]oxadiazol-2-yl]-propylamino}-5,6-dihydro-pyrrolo[1,2,3-de]quinoxalin-3-one]	≤ 0.016	0.25 (≈ 0.506 µM)	0.063 (≈ 0.127 µM)	≤ 0.016	≤ 0.016
CCCc1ccc(-n2nc(CCCN[C@@H]3Cn4c(=O)cnc5ccc(F)c3c54)oc2=O)cc1 [Example 27, (S)-7-fluoro-6-{3-[5-oxo-4-(4-propyl-phenyl)-4,5-dihydro-[1,3,4]oxadiazol-2-yl]-propylamino}-5,6-dihydro-pyrrolo[1,2,3-de]quinoxalin-3-one]	4 (≈ 8.9 µM)	2 (≈ 4.45 µM)	4 (≈ 8.9 µM)	2 (≈ 4.45 µM)	0.5 (≈ 1.11 µM)
